Assay results published in US9707231B2, “Compositions and methods for reduction of amyloid-beta load” (Modgene, LLC, priority 2011, dated 2017).
Where “and” joins values, the source holds several entries; their conditions need not be identical. Identical values can stand only once. Counter-ions that a name gives are not always drawn. Like-named read-outs stand apart in the source and are kept apart here.

Columns and labels:
[1] = cited from earlier work
Aβ [2] = experiment: Aβ in media of SYSY-APP cells, Covance ELISA; assay type: cell-based
Description: • 1. Thaw SYSY-APP cells, add to warmed high glucose DMEM with 10% serum, pen-strep in t-75 flask. In 2 days, split culture into 4 flasks. Collect cells from 3 and freeze in liquid N2. Use remaining culture for experiment. • 2. Seed 24-well plate with cells in same media. Grow to confluence. • 3. […] After 16 hr incubation, isolate media, add 10 ul protease inhibitor and spin out cells and debris (3000×g); • 4.

Abl kinase = target: T1, Abl kinase (Homo sapiens, UniProt P00519); experiment: Abl kinase activity, 32P-ATP / Abltide peptide, scintillation counting; assay type: biochemical; details: for Abl kinase activity, CPM (single assay): duplicates 1 and 2
T1 construct: purchased Millipore, Temecula, Calif
Description: The following were combined in order:
10 μL 2.5× kinase assay buffer
2.5 μL Abl kinase (Millipore, Temecula, Calif.)
1 μL DMSO vehicle or inhibitor in DMSO on ice
2.5 μL Abltide synthetic peptide substrate, biotin-tagged (Millipore, Temecula, Calif.) • Incubate at 30° C. for 10 min.; • Stop by the addition of 12.5 μL 7.5M guanidine HCL to each reaction, vortex. • Spot 12.5 μL on SAM2 biotin capture membrane (Promega Corp., Madison, Wis.) • Wash the membrane (4×2M NaCl; 4×2M NaCl, 1% H3PO4, 2×H2O, at room temp.) • Kinase activity was determined by scintillation counting. • The Scintillation count: final drug concentration shown • Each assay was performed in duplicate.

[3] = cited from earlier work; remark: listed apart in the source
[4] = cited from earlier work; remark: listed apart in the source
Aβ [5] = test system: Aβ
Description: Wild-type C57B1/6 and DBA/2J male mice (age 8-12 weeks) were administered drug or vehicle twice daily for 7 days by intraperitoneal injection.
Animals were sacrificed 12 hr after the last injection. Individual mice were anesthetized with isoflurane and blood samples (100-300 ul) taken by cardiac puncture with heparinized syringes. Samples were placed on ice for 30 minutes in the presence of EDTA and then centrifuged for 20 minutes at 16,000×g at 4° C. The plasma fraction was removed and stored at −80° C. Brains were removed and frozen rapidly on dry ice and stored at −80° C.
Detection of mouse Aβ1-40 in blood and brain samples was performed by using a commercially available immunoassay kit (Biosource mouse Aβ1-40, Catalog No. KMB3481, Invitrogen, Carlsbad, Calif.) or by Western blot. Mouse brain samples were prepared by homogenizing brain tissue in a polytron in the presence of 5M guanidine HCl and 50 mM Tris HCl, pH 8.0 as described in the assay protocol.
Blood samples were diluted 1:5 in standard diluent buffer. Samples were assayed in duplicate and OD450 measured on a Tecan infinite 2000 plate reader.
For Western blots, samples were subjected to P AGE analysis, transferred to PVDF membranes and the Aβ hexamers were visualized using a monoclonal antibody 4G8 directed against mouse Aβ (1:1,000; Covance) using the manufacturer's recommended protocol. Blots were scanned by densitometry, and then reprobed with an antibody to histone H3 (1:50,000; Abcam) as a loading and transfer control. Data are depicted as normalized optical density.

[6] = 20 mg/kg IP twice daily 7 days, young and old B mice

T1 sequence (P00519 whole entry): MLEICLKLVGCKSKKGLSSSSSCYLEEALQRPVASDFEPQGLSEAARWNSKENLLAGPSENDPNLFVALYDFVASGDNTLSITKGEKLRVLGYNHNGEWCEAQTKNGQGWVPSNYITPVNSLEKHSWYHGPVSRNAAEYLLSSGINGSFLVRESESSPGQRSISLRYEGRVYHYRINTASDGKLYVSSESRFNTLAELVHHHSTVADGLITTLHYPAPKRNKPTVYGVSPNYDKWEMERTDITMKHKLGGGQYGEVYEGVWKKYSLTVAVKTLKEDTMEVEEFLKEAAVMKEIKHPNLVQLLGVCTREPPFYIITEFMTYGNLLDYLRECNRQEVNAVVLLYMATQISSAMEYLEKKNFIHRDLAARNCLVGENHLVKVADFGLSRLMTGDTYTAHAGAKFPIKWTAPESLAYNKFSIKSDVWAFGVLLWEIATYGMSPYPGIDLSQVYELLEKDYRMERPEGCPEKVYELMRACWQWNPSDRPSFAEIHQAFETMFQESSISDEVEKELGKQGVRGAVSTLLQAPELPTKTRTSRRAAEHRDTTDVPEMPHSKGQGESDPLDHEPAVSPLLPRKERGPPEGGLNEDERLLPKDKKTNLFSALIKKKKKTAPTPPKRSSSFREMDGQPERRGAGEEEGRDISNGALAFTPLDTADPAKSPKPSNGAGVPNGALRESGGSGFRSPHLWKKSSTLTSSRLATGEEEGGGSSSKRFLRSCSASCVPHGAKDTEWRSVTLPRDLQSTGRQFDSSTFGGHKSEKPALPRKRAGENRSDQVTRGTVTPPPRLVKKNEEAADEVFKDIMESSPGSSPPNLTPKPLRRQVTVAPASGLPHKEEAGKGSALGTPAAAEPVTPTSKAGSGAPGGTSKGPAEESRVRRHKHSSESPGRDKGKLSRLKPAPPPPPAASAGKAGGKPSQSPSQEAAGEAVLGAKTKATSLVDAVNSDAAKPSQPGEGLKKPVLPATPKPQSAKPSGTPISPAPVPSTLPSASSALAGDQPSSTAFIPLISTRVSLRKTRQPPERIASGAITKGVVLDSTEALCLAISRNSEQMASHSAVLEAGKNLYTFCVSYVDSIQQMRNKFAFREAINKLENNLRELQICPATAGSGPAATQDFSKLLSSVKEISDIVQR

In the case of `Cc1ccc(NC(=O)c2ccc(CN3CCN(C)CC3)cc2)cc1Nc1nccc(-c2cccnc2)n1` [imatinib, reference compound], the “Cmax (time)” value ([1]; oral administration in pediatric patients) is given as 2 to 4 h.
For `Cc1ccc(NC(=O)c2ccc(CN3CCNCC3)cc2)cc1Nc1nccc(-c2cccnc2)n1` [N-desmethyl imatinib], the “reduction of Aβ compared with imatinib (in words)” value (Aβ [2]; 3-100 uM, 16 hr, 100 μL aliquot, FIG. 6) was “more effective reduction of Aβ than does imatinib”, the “Abl kinase activity, CPM (single assay)” value (Abl kinase; 10 μM final drug concentration, DMSO vehicle 2837/2956) was 540 CPM and 649 CPM and the “Abl kinase activity, AVERAGE of the two assays” value (from here on “Abl kinase activity, AVERAGE”) (Abl kinase; 10 μM, DMSO vehicle average 2897) was 595 CPM. For the same compound, the “Abl kinase activity, AVERAGE” value (Abl kinase; 30 μM) was 149 CPM, the “Abl kinase activity, CPM (single assay)” value (Abl kinase; 30 μM final drug concentration) was 149 CPM and the “Abl kinase activity, AVERAGE” value (Abl kinase; 100 μM) was 107 CPM. For the same compound, the “Abl kinase inhibition (in words)” value (Abl kinase; concentrations 10 to 100 μM, FIG. 8) was “inhibits Abl kinase less than does imatinib”, the “plasma AUC of the metabolite as share of the AUC for imatinib” value ([1]; humans) was “about 15%” and the elimination half-life ([1]; oral administration in healthy volunteers) was about 40 h.
In the case of `COc1ccc(-c2nc3ncccc3[nH]2)c(OC)c1.Cl` [ARL-57], the “CNS side effects (in words)” value ([3]; in vivo) is listed as “spectacular bright color vision” and the “log P” value ([4]; pH 8) is listed as 2.59.
For `COc1cc([S+](C)[O-])ccc1-c1nc2ncccc2[nH]1` (stereo not drawn) [ARL115, sulmazole], the “CNS side effects (in words)” value ([3]; humans) is given as “lack the CNS side effects” and the “log P, calcd.” value ([4]; calculated value) is given as 1.82.
With `Cc1ccc(NC(=O)c2ccc(CN3CCN(C)CC3)cc2)cc1Nc1nccc(-c2cccnc2)n1` [STI-571] the “reduction of brain levels of Aβ” value (Aβ [5]; [6]) was “approximately 50%”, the “reduction of plasma levels of Aβ” value (Aβ [5]; [6]) was “approximately 50%” and the “reduction of circulating (plasma) Aβ” value (Aβ [5]; highest dose (100 mg/kg) IP twice daily 7 days, young D2 mice) was “approximately 75%”.
In the case of `Cc1cc(NC(=O)c2ccc(CN3CCN(C)CC3)cc2)ccc1Nc1nccc(-c2cccnc2)n1` [Imatinib para-diaminomethylbenzene 3 HCl], the “effect on Aβ concentration (in words)” value (Aβ [2]; 3-100 μM, 150 μL media supernatant, FIG. 7) is reported as “stronger inhibition of Aβ than does imatinib”.
